Data published in US20230060588A1 (priority 2021, published 2023).

Assays:
MCF7 cells [1] = assay type: cell-based
MCF7 cells [2] = system: MCF7 cells
A375 cells [3] = system: A375 cells
A375 cells [4] = assay type: cell-based
PANC1 cells [5] = assay type: cell-based
MCF7 cells [6] = assay type: cell-based; remark: listed apart in the source
SARS-CoV-2 S1 protein = assay type: cell-based
ACE2 = assay type: cell-based, human
PANC1 cells [7] = assay type: cell-based; remark: listed apart in the source
[8] = system: Reporter mNeonGreen SARS-CoV-2 virus (2019-nCoV/USA_WA1/2020); assay type: cell-based
A549 cells = assay type: cell-based, human
LN18 cells = assay type: cell-based
MDA-MB-231 cells = assay type: cell-based
[9] = system: SARS-CoV-2 S1 protein-ACE2; assay type: binding
SARS-CoV-2 = conditions: cited from earlier work

Q: For CC(=O)OC1O[C@H](CO)[C@@H](OC(C)=O)[C@H](OC(C)=O)[C@@H]1OC(C)=O (stereo partly drawn) [1,2,3,4-tetra-O-Acetyl-D-mannopyranose], which ECL binding (MCF7 cells [1]) is on record?
A: Its ECL binding is “moderately reduced”.

Q: What about the MAL2 binding (MCF7 cells [1]) of the same compound?
A: The MAL2 binding was “no effect”.

Q: And the PNA binding (MCF7 cells [1])?
A: Its PNA binding is “significantly reduced”.

Q: And the SNA binding (MCF7 cells [1])?
A: The SNA binding was “no effect”.

Q: What about the cell toxicity (MCF7 cells [2]) of the same compound?
A: Its cell toxicity is “induced cell toxicity at a higher concentration”.

Q: And the “concentrations having no impact on cell viability” value (MCF7 cells [2]; human)?
A: The value was “less than 0.7 mM”.

Q: With CC(=O)OC1O[C@H](CO)[C@@H](OC(C)=O)[C@H](O)[C@@H]1O (stereo partly drawn) [1,4-di-O-acetyl-D-mannopyranose] as the compound, how does the cell viability (A375 cells [3]) read?
A: The cell viability was “did not have any influence on cell viability”.

Q: What about the ECL binding (A375 cells [4]) of the same compound?
A: Its ECL binding is “no effect”.

Q: What about the MAL2 binding (A375 cells [4]) of the same compound?
A: The MAL2 binding was “no effect”.

Q: And the PNA binding (A375 cells [4])?
A: The PNA binding was “significantly reduced”.

Q: And the SNA binding (A375 cells [4])?
A: Its SNA binding is “no effect”.

Q: Which “disialyl T antigen/T antigen ratio” value (PANC1 cells [5]) does the source give for O=C[C@@H](O)[C@@H](O)[C@H](O)[C@H](O)CO [D-mannose] here?
A: The value was “significantly increased”.

Q: What about the “sialyl T antigen/T antigen ratio” value (PANC1 cells [5]) of the same compound?
A: The value was “significantly increased”.

Q: And the ECL binding (MCF7 cells [1])?
A: The ECL binding was “generally reduced”.

Q: And the MAL2 binding (MCF7 cells [1])?
A: Its MAL2 binding is “increasing”.

Q: What about the PNA binding (MCF7 cells [1]) of the same compound?
A: The PNA binding was “generally reduced”.

Q: What about the SNA binding (MCF7 cells [1]) of the same compound?
A: Its SNA binding is “increasing”.

Q: What about the “disialyl T antigen/T antigen ratio” value (MCF7 cells [6]) of the same compound?
A: The value was “significantly enhanced”.

Q: And the “sialylation of complex N-glycans” value (MCF7 cells [6])?
A: Its value is “sialic acids were added to multiple N-glycans”.

Q: What about the “ECL binding to S1 protein” value (SARS-CoV-2 S1 protein) of the same compound?
A: Its value is “significantly reduced”.

Q: What about the “MAL1 binding to S1 protein” value (SARS-CoV-2 S1 protein) of the same compound?
A: Its value is “moderately reduced”.

Q: And the “MAL2 binding to S1 protein” value (SARS-CoV-2 S1 protein)?
A: Its value is “moderately reduced”.

Q: What about the “PNA binding to S1 protein” value (SARS-CoV-2 S1 protein) of the same compound?
A: The value was “No PNA binding was observed”.

Q: And the “RSL binding to S1 protein” value (SARS-CoV-2 S1 protein)?
A: The value was “significantly reduced”.

Q: What about the “SNA binding to S1 protein” value (SARS-CoV-2 S1 protein) of the same compound?
A: The value was “no change”.

Q: What about the ACE2 expression (ACE2) of the same compound?
A: Its ACE2 expression is “did not significantly change”.

Q: What about the ECL binding (PANC1 cells [7]) of the same compound?
A: Its ECL binding is “generally reduced”.

Q: And the MAL2 binding (PANC1 cells [7])?
A: Its MAL2 binding is “increasing”.

Q: And the PNA binding (PANC1 cells [7])?
A: Its PNA binding is “generally reduced”.

Q: And the SNA binding (PANC1 cells [7])?
A: The SNA binding was “increasing”.

Q: And the cytoprotection [8]?
A: The cytoprotection was “significant cytoprotection”.

Q: What about the “reduction in viral replication” value [8] of the same compound?
A: Its value is roughly 70%.

Q: What about the ECL binding (A549 cells) of the same compound?
A: Its ECL binding is “significantly reduced”.

Q: And the MAL2 binding (A549 cells)?
A: Its MAL2 binding is “slightly enhancing”.

Q: What about the PNA binding (A549 cells) of the same compound?
A: The PNA binding was “minimal to no influence”.

Q: And the SNA binding (A549 cells)?
A: The SNA binding was “minimal to no influence”.

Q: What about the ECL binding (LN18 cells) of the same compound?
A: Its ECL binding is “significantly reduced”.

Q: What about the MAL2 binding (LN18 cells) of the same compound?
A: The MAL2 binding was “no effect on enhancing”.

Q: What about the PNA binding (LN18 cells) of the same compound?
A: Its PNA binding is “significantly reduced”.

Q: And the SNA binding (LN18 cells)?
A: Its SNA binding is “no effect on enhancing”.

Q: What about the ECL binding (MDA-MB-231 cells) of the same compound?
A: The ECL binding was “significantly reduced”.

Q: What about the MAL2 binding (MDA-MB-231 cells) of the same compound?
A: Its MAL2 binding is “no effect on enhancing”.

Q: And the PNA binding (MDA-MB-231 cells)?
A: Its PNA binding is “significantly reduced”.

Q: And the SNA binding (MDA-MB-231 cells)?
A: Its SNA binding is “no effect on enhancing”.

Q: And the cytotoxicity (A549 ACE2+ cells)?
A: The cytotoxicity was “no observed cytotoxicity”.

Q: And the total cell count (A549 ACE2+ cells)?
A: The total cell count was “negligible difference in cell count”.

Q: And the “ACE2 binding of S1 protein” value [9]?
A: Its value is “reduced ACE2 binding”.

Q: With CN(Cc1cnc2nc(N)nc(N)c2n1)c1ccc(C(=O)N[C@@H](CCC(=O)O)C(=O)O)cc1 [methotrexate] as the compound, how does the SARS-CoV-2 replication (SARS-CoV-2) read?
A: Its SARS-CoV-2 replication is “reduced”.
